From ChEMBL document CHEMBL1201862, “PubChem BioAssay data set” (2004)
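1) Cells in 96-well plates. 2) Compound, 48 h, 5 concentrations. 3) Linear interpolation between surrounding doses. 4) Unreached endpoint = highest concentration. GI50 marks 50% less growth.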 Calls of active or inactive are those of the source. Cut-off read from the data, not from the text of the source: active = GI50 up to about 1.1 µM and inactive = higher.

Columns and labels:
Test in all cases: NCI tumour cell line growth inhibition, 48 h
A498 = test system: A498
ACHN = test system: ACHN
EKVX = test system: EKVX
HCT-116 = test system: HCT-116
HCT-15 = test system: HCT-15
IGROV-1 = test system: IGROV-1
MDA-MB-231 = test system: MDA-MB-231
MDA-MB-435 = test system: MDA-MB-435
MDA-N = test system: MDA-N
NCI-H23 = test system: NCI-H23
NCI/ADR-RES = test system: NCI/ADR-RES
SK-MEL-5 = test system: SK-MEL-5
SN12C = test system: SN12C
SNB-19 = test system: SNB-19
SNB-75 = test system: SNB-75
T47D = test system: T47D
TK-10 = test system: TK-10
CAKI-1 = test system: CAKI-1
Malme-3M = test system: Malme-3M
UACC-62 = test system: UACC-62

Structure (SMILES)	GI50 (A498)	GI50 (ACHN)	GI50 (EKVX)	GI50 (HCT-116)	GI50 (HCT-15) [µM]	GI50 (IGROV-1)	GI50 (MDA-MB-231)	GI50 (MDA-MB-435)	GI50 (MDA-N)	GI50 (NCI-H23)	GI50 (NCI/ADR-RES)	GI50 (SK-MEL-5)	GI50 (SN12C)	GI50 (SNB-19)	GI50 (SNB-75)	GI50 (T47D)	GI50 (TK-10)	GI50 (CAKI-1)	GI50 (Malme-3M)	GI50 (UACC-62)
Nc1cc(OCc2ccccc2)c(OCc2ccccc2)cc1C=O	11.6 µM (inactive)	26 µM (inactive)	24.4 µM (inactive)	21.2 µM (inactive)	19.8	31.2 µM (inactive)	44.2 µM (inactive)	39.8 µM (inactive)	39.5 µM (inactive)	> 10 µM (inactive)	33 µM (inactive)	24.7 µM (inactive)	28.1 µM (inactive)	32.9 µM (inactive)	52.8 µM (inactive)	21.1 µM (inactive)	15.3 µM (inactive)			
N=C(N)NS(=O)(=O)c1ccc(Nc2c3ccccc3nc3ccc(C(=O)Nc4ccc(S(N)(=O)=O)cc4)cc23)cc1		> 100 µM (inactive)	> 100 µM (inactive)	> 100 µM (inactive)	> 100	> 100 µM (inactive)	> 100 µM (inactive)	> 100 µM (inactive)	> 100 µM (inactive)	> 100 µM (inactive)	> 100 µM (inactive)	> 100 µM (inactive)	> 100 µM (inactive)	> 100 µM (inactive)	> 100 µM (inactive)	> 100 µM (inactive)	> 100 µM (inactive)	> 100 µM (inactive)	> 100 µM (inactive)	> 100 µM (inactive)
CCOC(=O)Cc1csc(N/N=C2\C(=O)Nc3ccccc32)n1	27.4 µM (inactive)	32.4 µM (inactive)	32.1 µM (inactive)	40.1 µM (inactive)	41	17.4 µM (inactive)	43 µM (inactive)	55.6 µM (inactive)	41.8 µM (inactive)	32.6 µM (inactive)	31.8 µM (inactive)	21.7 µM (inactive)	> 100 µM (inactive)	26.9 µM (inactive)	28.2 µM (inactive)	27.7 µM (inactive)	> 100 µM (inactive)	32.5 µM (inactive)		42.2 µM (inactive)
CCCCN(CC)C(=O)C1=C(C)NC(C)=C(C(=O)N(CC)CCCC)C1	> 100 µM (inactive)	> 100 µM (inactive)	> 100 µM (inactive)	> 100 µM (inactive)	> 100	97.7 µM (inactive)	> 100 µM (inactive)	80 µM (inactive)	> 100 µM (inactive)	> 100 µM (inactive)	> 100 µM (inactive)	> 100 µM (inactive)	> 100 µM (inactive)	> 100 µM (inactive)	77.1 µM (inactive)	62.1 µM (inactive)	> 100 µM (inactive)	> 100 µM (inactive)		57.7 µM (inactive)
COC(=O)CCCc1ccc2c(c1)CC1(Cc3ccccc3C1)C2	59.2 µM (inactive)	75.3 µM (inactive)	> 100 µM (inactive)	26 µM (inactive)	6.28	> 100 µM (inactive)	> 100 µM (inactive)	20.6 µM (inactive)	23.2 µM (inactive)	46.3 µM (inactive)	80 µM (inactive)	20.1 µM (inactive)	88.5 µM (inactive)			> 100 µM (inactive)	> 100 µM (inactive)		87.1 µM (inactive)	> 100 µM (inactive)
Cc1ccnc2nc3[nH]c4ccccc4c3cc12	> 100 µM (inactive)	> 100 µM (inactive)	> 100 µM (inactive)	> 100 µM (inactive)	> 100	> 100 µM (inactive)	> 100 µM (inactive)	> 100 µM (inactive)	> 100 µM (inactive)	> 100 µM (inactive)	> 100 µM (inactive)	> 100 µM (inactive)	> 100 µM (inactive)		22 µM (inactive)	> 100 µM (inactive)	> 100 µM (inactive)	> 100 µM (inactive)		> 100 µM (inactive)
